The text below walks through data of US8946436B2, “Oxazolidinone compounds and their uses in preparation of antibiotics” (Sichuan Gooddoctor Pharmaceutical Group Co., Ltd., priority 2011, dated 2015).

One assay concerns L-02. Description: Cytotoxicity experiment (MTT), L-02. It is filed as cell-based. The following applies: L-02 normal cells. The protocol:
(§1) (1) Inoculating cells: Experimental cells in the growth of logarithmic phase were collected and suspended. The cell concentration of the suspension was adjusted so that they could be inoculated into the wells of 96-well micro plate at a density between 10^3-10^4 cells per well (200 μl per well). (2) Culturing cells: The cells were cultured at normal conditions for 3 days and then exposed to 50 uM compounds for test. (3) Coloring reaction: At 24 h, 48 h and 72 h after the cells being exposed to the compounds for test, 200 μl culture medium containing 20 μl MTT solution (5 mg/ml) was added into each well, and the well was further incubated at 37° C. for 2 hours to terminate the incubation. After the incubation, the supernatants were removed from the wells. In the event there were suspended cells in the wells, centrifugation should be performed before removal of supernatant from the wells. After the removal, 150 μl DMSO was added to each well and mixed thoroughly by agitation for 10 mins to fully dissolve crystals. (4) Ascertainment of colorimetry: The absorbance value at 490 nm of each well was determined by Enzyme-linked immunosorbent Monitor. The growth curve of the experimental cells was plotted by taking time as x-coordinate and absorbance value as y-coordinate. In addition, an inhibition ratio could be calculated in accordance with the following formula: Inhibition ratio=(absorbance value of control group-absorbance value of administering group)/absorbance value of control group×100%.

For the next assay, the system named is ATCC 25923. Description: Mouse model of systemic infection. It is filed as in vivo, C57 mice. The settings on record: intravenous. An excerpt:
Animal model: SPF grade C57 mice, 4-6 weeks age, weight 18-22 g, ten mice per group;
Infectious strain: ATCC 25923, grown in a MHB medium to a period of logarithmic growth;
Test compounds: Compound 13f prepared according to the methods above, and Linezolid as a control, purchased from Airsea Pharmaceutical Ltd., (Taizhou, ZheJiang Province, China;
Formulation and dosage of the test compounds: To evaluate the treating effect of compound 13f, an animal model of intraperitoneal infection by bacteria was established and grouped into 13f group and Linezolid group. The same dosage of the compound 13f and Linezolid was administrated to the groups, respectively.
The minimum lethal dose (MLD) was determined as follows: Bacterial stock liquid cultured overnight was adjusted to 0.5 McFarland with saline solution, and subsequently subjected to a proper serial dilution. 3-5 dilutions with different concentrations of the bacteria were used to infect mice (10 mice per concentration), respectively, by intraperitoneal injection with a volume of 0.5 mL of the dilution. The minimum concentration at which 100% mice were dead was regarded as MLD. For purpose of ensuring experimental reliability, two control groups (MLD control group and 1/10MLD control group) were used in this experiment. The mortality of the MLD control group was 100%, while the mortality of the 1/10OMLD control group was 30%. […] To enhance virulence of the infectious bacteria, 15% yeast was added into the bacterial liquid for infection.
Experimental animal and grouping: SPF grade C57 mice (purchased from Experiment Animal Center, West China Hospital of Sichuan University), 4-6 weeks old, weighting 18-22 g, were randomly divided into groups, including model group, and treating groups consisting of group administrated with compound 13f at 5 mg/kg, group administrated with compound 13f at 10 mg/kg, group administrated with Linezolid at 5 mg/kg and group administrated with Linezolid at 10 mg/kg, with ten mice per group.
1) Based on the MLD result from the preliminary experiment, the mice were infected by intraperitoneal injection with a saline suspension of ATCC 25923, containing 15% yeast. Injection dosage of the bacteria was 0.2 OD/mice.
2) Administration time and frequency: The above mentioned compounds (compound 13f and Linezolid) were administrated to the mice of the treating groups 1 hour before and 4 hour after the infection, respectively. Meanwhile, the mice of the model group received only solvents in the same volume as that of the compound solution administrated in the treating group. The treating groups includes compound 13f group at 10 mg/kg, compound 13f group at 5 mg/kg, Linezolid group at 10 mg/kg and Linezolid group at 5 mg/kg.
3) Administration route: intravenous injection;
4) Dissolving compounds: The compounds were dissolved with 30% water solution of hydroxypropyl-β-cyclodextrin;
5) Efficacy observation: After infection and administration, the appetites, activities, symptoms and signs of the test mice were observed regularly. The survival rate was monitored every 4 h. The observation lasted for 7 days. During this period of observation, dissection of dying mice was immediately carried out after their death, and a histopathological examination was conducted, if necessary.
6) Evaluation: Main indexes include survival time, survival rate, and CFU count of organ and blood.

Another assay deals with HEK-293. Description: Cytotoxicity experiment (MTT), HEK-293. The class given is cell-based. The following applies: HEK-293 normal cells. Here is the method:
as §1

The mark [1] stands for this setting: 10 mg/kg, 1 hour before and 4 hour after infection, 7 days observation.

The mortality is the share of the test organisms that died. The low end stands for a weak lethal effect, the high end for a strong lethal effect.

For `CC(=O)NC[C@H]1CN(c2ccc(N3CCOCC3)c(F)c2)C(=O)O1` [Linezolid, reference compound], the Inhibition ratio is listed as above 50% in the assay on L-02 (50 uM, 48 h) and above 50% with HEK-293 (50 uM, 48 h). For the same molecule, in the assay with ATCC 25923 (5 mg/kg), the “time after infection at which death of mice was observed” value stood at 5 h. Moreover, the mortality in the assay with ATCC 25923 (5 mg/kg, in 24 h) worked out at 50%; in the assay on ATCC 25923 (5 mg/kg, in 48 h), 70%; with ATCC 25923 (5 mg/kg, in 72 h), 100%. This molecule also showed a protection rate in the assay on ATCC 25923 (setting [1]) of 100%.

As to `CC(=O)NC[C@H]1CN(c2ccc(-n3cc(-c4ccccn4)cn3)c(F)c2)C(=O)O1` [Compound 13f, (S)-N-((3-(3-fluoro-4-(4-(pyridin-2-yl)-1H-pyrazol-1-yl)phenyl)-2-oxooxazolidin-5-yl)methyl)acetamide], the cytotoxicity at 50 µM with L-02 (Homo sapiens, L02, 48 h, read-out: Inhibition ratio) worked out at 2.74%; with HEK-293 (Homo sapiens, HEK293, 48 h, read-out: Inhibition ratio), 2.7%. For the same molecule, the “in vivo treatment effect and protection effect compared with Linezolid” value in the assay on ATCC 25923 (5 mg/kg) was “better in vivo treatment effect and protection effect”. Besides, the “time after infection at which death of mice was observed” value in the assay on ATCC 25923 (5 mg/kg) was 5 h. Moreover, the mortality with ATCC 25923 (5 mg/kg, in 24 h) was determined as 20%. In the assay on ATCC 25923 (10 mg/kg), the “therapeutic effect compared with linezolid” value is “same therapeutic effect as linezolid”. This molecule yielded a survival rate in the assay with ATCC 25923 (setting [1]) of 100%.
